This data set deals with CCRIS mutagenicity, Ames/micronucleus/aberration tests. As to the kind of experiment: CCRIS mutagenicity studies.
Where [1] appears, read: Test System: AMES SALMONELLA TYPHIMURIUM, Strain/Indicator: TA98, Metabolic Activation: NONE, Method: PREINCUBATION
Setting [2] is: Test System: AMES SALMONELLA TYPHIMURIUM, Strain/Indicator: TA100, Metabolic Activation: NONE, Method: PREINCUBATION
Where [3] appears, read: Test System: Ames Salmonella typhimurium, Strain/Indicator: TA98, Metabolic Activation: None, Method: Preincubation.
[4] abbreviates: Test System: Ames Salmonella typhimurium, Strain/Indicator: TA100, Metabolic Activation: None, Method: Preincubation.
[5] abbreviates: Test System: Ames Salmonella typhimurium, Strain/Indicator: TA1535, Metabolic Activation: None, Method: Preincubation.
Where [6] appears, read: Test System: Ames Salmonella typhimurium, Strain/Indicator: TA1537, Metabolic Activation: None, Method: Preincubation.
[7] abbreviates: Test System: E. coli, Strain/Indicator: WP2uvrA/pKM101, Metabolic Activation: None, Method: Preincubation.

Calls of active or inactive are those of the source. How the calls were made is not given here.

As for `CCCCN(CC(O)c1ccc(O)cc1)N=O` (centres undefined), the mutagenic call is “inactive; negative” under setting [1]; “inactive; negative” (Test System: AMES SALMONELLA TYPHIMURIUM, Strain/Indicator: TA98, Method: PREINCUBATION); “inactive; negative” under setting [2]; “inactive; negative” (Test System: AMES SALMONELLA TYPHIMURIUM, Strain/Indicator: TA100, Method: PREINCUBATION).

Consider `CC(=O)Oc1ccc2c(CBr)cc(=O)oc2c1`, for which the mutagenic call reads like this: under setting [1], “inactive; negative”; (Test System: AMES SALMONELLA TYPHIMURIUM, Strain/Indicator: TA98, Metabolic Activation: RAT, LIVER, S-9, PCB, Method: PREINCUBATION) “inactive; negative”; under setting [2], “inactive; negative”; (Test System: AMES SALMONELLA TYPHIMURIUM, Strain/Indicator: TA100, Metabolic Activation: RAT, LIVER, S-9, PCB, Method: PREINCUBATION) “inactive; negative”; (Test System: E. COLI, Strain/Indicator: WP2 UVRA, Metabolic Activation: NONE, Method: PREINCUBATION) “inactive; negative”.

For the molecule `CCCCC(CC)COC(=O)CCCCCCCCC(=O)OCC(CC)CCCC` (centres undefined), the mutagenic call is, setting by setting: (Test System: AMES SALMONELLA TYPHIMURIUM, Strain/Indicator: TA98, Metabolic Activation: HAMSTER, LIVER, S-9, AROCLOR 1254 (10%), Method: PREINCUBATION) “inactive; negative”; under setting [1], “inactive; negative”; (Test System: AMES SALMONELLA TYPHIMURIUM, Strain/Indicator: TA98, Metabolic Activation: RAT, LIVER, S-9, AROCLOR 1254 (10%), Method: PREINCUBATION) “inactive; negative”; (Test System: AMES SALMONELLA TYPHIMURIUM, Strain/Indicator: TA100, Metabolic Activation: HAMSTER, LIVER, S-9, AROCLOR 1254 (10%), Method: PREINCUBATION) “inactive; negative”; under setting [2], “inactive; negative”; (Test System: AMES SALMONELLA TYPHIMURIUM, Strain/Indicator: TA100, Metabolic Activation: RAT, LIVER, S-9, AROCLOR 1254 (10%), Method: PREINCUBATION) “inactive; negative”. In addition, the mutagenic call is “inactive; negative” (Test System: AMES SALMONELLA TYPHIMURIUM, Strain/Indicator: TA1535, Metabolic Activation: HAMSTER, LIVER, S-9, AROCLOR 1254 (10%), Method: PREINCUBATION); “inactive; negative” (Test System: AMES SALMONELLA TYPHIMURIUM, Strain/Indicator: TA1535, Metabolic Activation: NONE, Method: PREINCUBATION); “inactive; negative” (Test System: AMES SALMONELLA TYPHIMURIUM, Strain/Indicator: TA1535, Metabolic Activation: RAT, LIVER, S-9, AROCLOR 1254 (10%), Method: PREINCUBATION); “inactive; negative” (Test System: AMES SALMONELLA TYPHIMURIUM, Strain/Indicator: TA1537, Metabolic Activation: HAMSTER, LIVER, S-9, AROCLOR 1254 (10%), Method: PREINCUBATION); “inactive; negative” (Test System: AMES SALMONELLA TYPHIMURIUM, Strain/Indicator: TA1537, Metabolic Activation: NONE, Method: PREINCUBATION); “inactive; negative” (Test System: AMES SALMONELLA TYPHIMURIUM, Strain/Indicator: TA1537, Metabolic Activation: RAT, LIVER, S-9, AROCLOR 1254 (10%), Method: PREINCUBATION). Also, the mutagenic call is “inactive; negative” under setting [3]; “inactive; negative” (Test System: Ames Salmonella typhimurium, Strain/Indicator: TA98, Metabolic Activation: Rat, Liver, S9, Phenobarbital and 5,6-benzoflavone, Method: Preincubation); “inactive; negative” under setting [4]; “inactive; negative” (Test System: Ames Salmonella typhimurium, Strain/Indicator: TA100, Metabolic Activation: Rat, Liver, S9, Phenobarbital and 5,6-benzoflavone, Method: Preincubation); “inactive; negative” under setting [5]; “inactive; negative” (Test System: Ames Salmonella typhimurium, Strain/Indicator: TA1535, Metabolic Activation: Rat, Liver, S9, Phenobarbital and 5,6-benzoflavone, Method: Preincubation). For the same molecule, the mutagenic call runs as follows: under setting [6], “inactive; negative”; (Test System: Ames Salmonella typhimurium, Strain/Indicator: TA1537, Metabolic Activation: Rat, Liver, S9, Phenobarbital and 5,6-benzoflavone, Method: Preincubation) “inactive; negative”; under setting [7], “inactive; negative”; (Test System: E. coli, Strain/Indicator: WP2uvrA/pKM101, Metabolic Activation: Rat, Liver, S9, Phenobarbital and 5,6-benzoflavone, Method: Preincubation) “inactive; negative”.

On to `O=C(Cl)c1ccc(Cl)cc1Cl`, for which the mutagenic call is, setting by setting: under setting [1], “inactive; negative”; (Test System: AMES SALMONELLA TYPHIMURIUM, Strain/Indicator: TA98, Metabolic Activation: RAT LIVER S-9, PCB, Method: PREINCUBATION) “active; positive”; under setting [2], “inactive; negative”; (Test System: AMES SALMONELLA TYPHIMURIUM, Strain/Indicator: TA100, Metabolic Activation: RAT LIVER S-9, PCB, Method: PREINCUBATION) “active; positive”; (Test System: AMES SALMONELLA TYPHIMURIUM, Strain/Indicator: TA104, Metabolic Activation: NONE, Method: PREINCUBATION) “inactive; negative”; (Test System: AMES SALMONELLA TYPHIMURIUM, Strain/Indicator: TA104, Metabolic Activation: RAT LIVER S-9, PCB, Method: PREINCUBATION) “active; positive”. Moreover, the mutagenic call runs as follows: under setting [3], “inactive; negative”; (Test System: Ames Salmonella typhimurium, Strain/Indicator: TA98, Metabolic Activation: Rat, Liver, S9, Sodium phenobarbital and 5,6-benzoflavone, Method: Preincubation) “inactive; negative”; under setting [4], “inactive; negative”; (Test System: Ames Salmonella typhimurium, Strain/Indicator: TA100, Metabolic Activation: Rat, Liver, S9, Sodium phenobarbital and 5,6-benzoflavone, Method: Preincubation) “inactive; negative”; under setting [5], “inactive; negative”; (Test System: Ames Salmonella typhimurium, Strain/Indicator: TA1535, Metabolic Activation: Rat, Liver, S9, Sodium phenobarbital and 5,6-benzoflavone, Method: Preincubation) “inactive; negative”. Also, the mutagenic call runs as follows: under setting [6], “inactive; negative”; (Test System: Ames Salmonella typhimurium, Strain/Indicator: TA1537, Metabolic Activation: Rat, Liver, S9, Sodium phenobarbital and 5,6-benzoflavone, Method: Preincubation) “inactive; negative”; under setting [7], “inactive; negative”; (Test System: E. coli, Strain/Indicator: WP2uvrA/pKM101, Metabolic Activation: Rat, Liver, S9, Sodium phenobarbital and 5,6-benzoflavone, Method: Preincubation) “inactive; negative”; (Test System: E.COLI, Strain/Indicator: WP2 UVRA, Metabolic Activation: NONE, Method: PREINCUBATION) “inactive; negative”; (Test System: E.COLI, Strain/Indicator: WP2 UVRA, Metabolic Activation: RAT LIVER S-9, PCB, Method: PREINCUBATION) “inactive; negative”.

Values taken from PubChem BioAssay AID1259407 (Chemical Carcinogenesis Research Information System (CCRIS), 2018).
